According to patent US7495015B2, “Indazole derivatives and methods for using the same” (Roche Palo Alto LLC, priority 2004, dated 2009):

Molecular target: T1, p38 MAP kinase (Homo sapiens, UniProt Q16539)
T1 construct: made in house; host or cells: E. coli (co-expressed with SEK-1 and MEKK to obtain the phosphorylated form)
Test: p38 (MAP) kinase in vitro assay (transfer of γ-phosphate from γ-33P-ATP to Myelin Basic Protein)
Assay type: biochemical
Settings: phosphorylated recombinant p38 MAP kinase, MBP substrate, 30° C.
Method: This example illustrates a p38 (MAP) kinase in vitro assay useful for evaluating the compounds of the invention.
The p38 MAP kinase inhibitory activity of compounds of this invention in vitro was determined by measuring the transfer of the γ-phosphate from γ-^33P-ATP by p-38 kinase to Myelin Basic Protein (MBP), using a minor modification of the method described in Ahn, et al., J. Biol. Chem. 266:4220-4227 (1991).
The phosphorylated form of the recombinant p38 MAP kinase was co-expressed with SEK-1 and MEKK in E. Coli (see, Khokhlatchev, et al., J Biol. Chem. 272:11057-11062 (1997)) and then purified by affinity chromatography using a Nickel column.
The phosphorylated p38 MAP kinase was diluted in kinase buffer (20 mM 3-(N-morpholino)propanesulfonic acid, pH 7.2, 25 mM β-glycerol phosphate, 5 mM ethylene glycol-bis(beta-aminoethyl ether)-N,N,N′,N′-tetraacetic acid, 1 mM sodium ortho-vanadate, 1 mM dithiothreitol, 40 mM magnesium chloride). Test compound dissolved in DMSO or only DMSO (control) was added and the samples were incubated for 10 min at 30° C. The kinase reaction was initiated by the addition of a substrate cocktail containing MBP and γ-^33P-ATP. […] The phosphorylated MBP was then separated from the residual γ-^33P-ATP using a phosphocellulose membrane (Millipore, Bedfrod, Mass.) and quantitated using a scintillation counter (Packard, Meriden, Conn.).

T1 sequence (Q16539 whole entry): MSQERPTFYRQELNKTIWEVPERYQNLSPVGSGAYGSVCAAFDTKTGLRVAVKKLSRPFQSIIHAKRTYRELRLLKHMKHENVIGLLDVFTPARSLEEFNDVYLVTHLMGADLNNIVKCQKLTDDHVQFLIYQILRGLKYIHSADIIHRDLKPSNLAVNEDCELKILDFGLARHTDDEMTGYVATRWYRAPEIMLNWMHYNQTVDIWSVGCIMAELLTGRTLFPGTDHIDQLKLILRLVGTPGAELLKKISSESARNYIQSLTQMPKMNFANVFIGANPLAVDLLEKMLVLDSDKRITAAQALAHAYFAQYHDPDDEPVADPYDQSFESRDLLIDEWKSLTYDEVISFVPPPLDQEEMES

IC50: 0.028 µM
Compound: Oc1ccc(-c2n[nH]c3cc(Oc4ccccc4F)ccc23)cc1 [Compound 35, 4-[6-(2-Fluoro-phenoxy)-1H-indazol-3-yl]-phenol]
